Patent US10597388B2, “Pyridazinone herbicides” (FMC CORPORATION, priority 2014, dated 2020)

Legend:
Assay in all cases: Test C greenhouse herbicide test, pre- and postemergence
Type in all cases: in vivo
[1] = system: velvetleaf (Abutilon theophrasti)
Summary of the method: (§1)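 Visual ratings on a 0 to 100 scale (0 = no effect, 100 = complete control) versus untreated controls, scored 13–15 d after treatment. Soil-applied preemergence to seeded loam/sand; foliar postemergence to 1- to 4-leaf plants (2–18 cm) in peat-vermiculite mix; compounds formulated in solvent plus surfactant.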

[2] = system: ryegrass, Italian (Italian ryegrass, Lolium multiflorum)
Summary of the method: as §1

[3] = system: crabgrass, large (large crabgrass, Digitaria sanguinalis)
Summary of the method: as §1

corn (Zea mays) = system: corn (Zea mays)
Summary of the method: as §1

[4] = system: waterhemp (common waterhemp, Amaranthus rudis)
Summary of the method: as §1

soybean (Glycine max) = system: soybean (Glycine max)
Summary of the method: as §1

[5] = system: morningglory (Ipomoea coccinea)
Summary of the method: as §1

[6] = system: galium (catchweed bedstraw, Galium aparine)
Summary of the method: as §1

[7] = system: nutsedge, yellow (yellow nutsedge, Cyperus esculentus)
Summary of the method: as §1

[8] = system: barnyardgrass (Echinochloa crus-galli)
Summary of the method: as §1

[9] = system: foxtail, giant (giant foxtail, Setaria faberii)
Summary of the method: as §1

[10] = system: lambsquarters (Chenopodium album)
Summary of the method: as §1

[11] = system: pigweed (Amaranthus retroflexus)
Summary of the method: as §1

[12] = system: blackgrass (Alopecurus myosuroides)
Summary of the method: as §1

[13] = system: wheat (winter wheat, Triticum aestivum)
Summary of the method: as §1

[14] = Postemergence, 125 g ai/ha, scale 0 to 100, 0 is no effect, 100 is complete control
[15] = Postemergence, 250 g ai/ha, scale 0 to 100, 0 no effect, 100 complete control, 13 to 15 d
[16] = Preemergence, 31 g ai/ha, scale 0 to 100, 0 is no effect, 100 is complete control
[17] = Preemergence, 62 g ai/ha, scale 0 to 100, 0 is no effect, 100 is complete control
[18] = Preemergence, 125 g ai/ha, scale 0 to 100, 0 is no effect, 100 is complete control
[19] = Preemergence, 250 g ai/ha, scale 0 to 100, 0 no effect, 100 complete control
[20] = postemergence, 62 g ai/ha, scale 0 to 100, 0 no effect, 100 complete control
[21] = Postemergence, 31 g ai/ha, 0 to 100 scale (0 no effect, 100 complete control)

`COC(=O)Oc1cnn(C)c(=O)c1-c1c(C)sc2ccccc12` [Compound 97] was tested, and the “Plant response rating, Velvetleaf” value [1, 14] was 10, the “Plant response rating, Velvetleaf” value [1, 15] was 30 and the “Plant response rating, Velvetleaf” value [1, 16] was 0. For the same molecule, the “Plant response rating, Velvetleaf” value [1, 17] was 0, the “Plant response rating, Velvetleaf” value [1, 18] was 20 and the “Velvetleaf plant response rating” value [1, 19] was 30. The “Velvetleaf plant response rating” value [1, 20] was 20, the “Plant response rating, Ryegrass, Italian” value [2, 14] was 50 and the “Plant response rating, Ryegrass, Italian” value [2, 15] was 55. For the same molecule, the “Plant response rating, Ryegrass, Italian” value [2, 16] was 5, the “Plant response rating, Ryegrass, Italian” value [2, 17] was 5 and the “Plant response rating, Ryegrass, Italian” value [2, 18] was 30. For the same molecule, the “Ryegrass, Italian plant response rating” value [2, 19] was 30, the “Ryegrass, Italian plant response rating” value [2, 20] was 30 and the “Plant response rating, Crabgrass, Large” value [3, 14] was 10. The “Plant response rating, Crabgrass, Large” value [3, 15] was 25, the “Plant response rating, Crabgrass, Large” value [3, 16] was 0 and the “Plant response rating, Crabgrass, Large” value [3, 17] was 0. The “Plant response rating, Crabgrass, Large” value [3, 18] was 0, the “Crabgrass, Large plant response rating” value [3, 19] was 60 and the “Crabgrass, Large plant response rating” value [3, 20] was 5. The “Corn plant response rating” value (corn (Zea mays); [21]) was 0, the “Plant response rating, Corn” value (corn (Zea mays); [14]) was 0 and the “Plant response rating, Corn” value (corn (Zea mays); [15]) was 5. The “Plant response rating, Corn” value (corn (Zea mays); [16]) was 5, the “Plant response rating, Corn” value (corn (Zea mays); [17]) was 0 and the “Plant response rating, Corn” value (corn (Zea mays); [18]) was 0. The “Corn plant response rating” value (corn (Zea mays); [19]) was 0, the “Corn plant response rating” value (corn (Zea mays); [20]) was 0 and the “Plant response rating, Waterhemp” value [4, 14] was 5. For the same molecule, the “Plant response rating, Waterhemp” value [4, 15] was 10, the “Plant response rating, Waterhemp” value [4, 16] was 0 and the “Plant response rating, Waterhemp” value [4, 17] was 10. The “Plant response rating, Waterhemp” value [4, 18] was 10, the “Waterhemp plant response rating” value [4, 19] was 20 and the “Waterhemp plant response rating” value [4, 20] was 5. For the same molecule, the “Plant response rating, Soybean” value (soybean (Glycine max); [14]) was 5, the “Plant response rating, Soybean” value (soybean (Glycine max); [15]) was 5 and the “Plant response rating, Soybean” value (soybean (Glycine max); [16]) was 15. The “Plant response rating, Soybean” value (soybean (Glycine max); [17]) was 10, the “Plant response rating, Soybean” value (soybean (Glycine max); [18]) was 10 and the “Soybean plant response rating” value (soybean (Glycine max); [19]) was 20. The “Soybean plant response rating” value (soybean (Glycine max); [20]) was 0, the “Plant response rating, Morningglory” value [5, 14] was 30 and the “Plant response rating, Morningglory” value [5, 15] was 30. For the same molecule, the “Plant response rating, Morningglory” value [5, 16] was 25, the “Plant response rating, Morningglory” value [5, 17] was 30 and the “Plant response rating, Morningglory” value [5, 18] was 20. The “Morningglory plant response rating” value [5, 19] was 30, the “Morningglory plant response rating” value [5, 20] was 40 and the “Plant response rating, Galium” value [6, 14] was 85. For the same molecule, the “Plant response rating, Galium” value [6, 15] was 90, the “Plant response rating, Galium” value [6, 16] was 0 and the “Plant response rating, Galium” value [6, 17] was 0. The “Plant response rating, Galium” value [6, 18] was 0, the “Galium plant response rating” value [6, 19] was 90 and the “Galium plant response rating” value [6, 20] was 80. The “Plant response rating, Nutsedge, Yellow” value [7, 14] was 0, the “Plant response rating, Nutsedge, Yellow” value [7, 15] was 5 and the “Plant response rating, Nutsedge, Yellow” value [7, 16] was 0. For the same molecule, the “Plant response rating, Nutsedge, Yellow” value [7, 17] was 0, the “Plant response rating, Nutsedge, Yellow” value [7, 18] was 0 and the “Nutsedge, Yellow plant response rating” value [7, 19] was 0. For the same molecule, the “Nutsedge, Yellow plant response rating” value [7, 20] was 0, the “Barnyardgrass plant response rating” value [8, 21] was 0 and the “Plant response rating, Barnyardgrass” value [8, 14] was 15. The “Plant response rating, Barnyardgrass” value [8, 15] was 35, the “Plant response rating, Barnyardgrass” value [8, 16] was 0 and the “Plant response rating, Barnyardgrass” value [8, 17] was 0. The “Plant response rating, Barnyardgrass” value [8, 18] was 0, the “Barnyardgrass plant response rating” value [8, 19] was 35 and the “Barnyardgrass plant response rating” value [8, 20] was 5. The “Plant response rating, Foxtail, Giant” value [9, 14] was 5, the “Plant response rating, Foxtail, Giant” value [9, 15] was 5 and the “Plant response rating, Foxtail, Giant” value [9, 16] was 0. For the same molecule, the “Plant response rating, Foxtail, Giant” value [9, 17] was 5, the “Plant response rating, Foxtail, Giant” value [9, 18] was 5 and the “Foxtail, Giant plant response rating” value [9, 19] was 55. The “Foxtail, Giant plant response rating” value [9, 20] was 5, the “Plant response rating, Lambsquarters” value [10, 14] was 50 and the “Plant response rating, Lambsquarters” value [10, 15] was 60. For the same molecule, the “Plant response rating, Lambsquarters” value [10, 16] was 0, the “Plant response rating, Lambsquarters” value [10, 17] was 0 and the “Plant response rating, Lambsquarters” value [10, 18] was 20. For the same molecule, the “Lambsquarters plant response rating” value [10, 19] was 25, the “Lambsquarters plant response rating” value [10, 20] was 20 and the “Plant response rating, Pigweed” value [11, 14] was 60. The “Plant response rating, Pigweed” value [11, 15] was 75, the “Plant response rating, Pigweed” value [11, 16] was 5 and the “Plant response rating, Pigweed” value [11, 17] was 35. The “Plant response rating, Pigweed” value [11, 18] was 65, the “Pigweed plant response rating” value [11, 19] was 65 and the “Pigweed plant response rating” value [11, 20] was 50. For the same molecule, the “Blackgrass plant response rating” value [12, 21] was 0, the “Plant response rating, Blackgrass” value [12, 14] was 0 and the “Plant response rating, Blackgrass” value [12, 15] was 0. For the same molecule, the “Plant response rating, Blackgrass” value [12, 16] was 0, the “Plant response rating, Blackgrass” value [12, 17] was 0 and the “Plant response rating, Blackgrass” value [12, 18] was 0. The “Blackgrass plant response rating” value [12, 19] was 5, the “Blackgrass plant response rating” value [12, 20] was 0 and the “Plant response rating, Wheat” value [13, 14] was 0. The “Plant response rating, Wheat” value [13, 15] was 0, the “Plant response rating, Wheat” value [13, 16] was 0 and the “Plant response rating, Wheat” value [13, 17] was 0. The “Plant response rating, Wheat” value [13, 18] was 0, the “Wheat plant response rating” value [13, 19] was 0 and the “Wheat plant response rating” value [13, 20] was 0.
